What follows are molecules tested against T1, CIB1 and αIIb interaction (CIB1-GST : F-αIIb peptide) (Homo sapiens, UniProt Q99828) (assay: FP assay, 1536-well qHTS format (primary and confirmatory screen)). Settings: Table S3, confirmatory screen, qHTS curve class; a negative sign marks inhibitory curves.
T1 construct: made in house; host or cells: BL-21 plus RIL cells (E. coli)
T1 sequence (Q99828 1-191): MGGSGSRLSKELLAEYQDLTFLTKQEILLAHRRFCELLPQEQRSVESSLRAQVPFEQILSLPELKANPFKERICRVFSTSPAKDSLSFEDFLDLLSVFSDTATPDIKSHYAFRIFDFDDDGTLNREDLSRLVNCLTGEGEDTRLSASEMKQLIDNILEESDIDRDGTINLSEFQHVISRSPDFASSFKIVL
Format: binding

Compound | Curve Class (confirmatory screen)
CCc1ccc(NC(=O)C(=O)NNC(=O)c2cccs2)cc1.O=C(O)C(F)(F)F [NCGC00244112-01] | 4
O=C(NCCCN1CCNCC1)c1cccc(-c2cc(O)c3ncccc3c2)c1.O=C(O)C(F)(F)F [NCGC00244531-01] | 4
CN(C)CC1CCCN(C2CCN(C(=O)c3cccc(-c4cc(O)c5ncccc5c4)c3)CC2)C1.O=C(O)C(F)(F)F (centres unmarked) [NCGC00247737-01] | 4

Same assay, conditions: Table S3, confirmatory screen; negative = inhibition

Compound | Efficacy (%) (confirmatory screen)
CCc1ccc(NC(=O)C(=O)NNC(=O)c2cccs2)cc1.O=C(O)C(F)(F)F [NCGC00244112-01] | 0%
O=C(NCCCN1CCNCC1)c1cccc(-c2cc(O)c3ncccc3c2)c1.O=C(O)C(F)(F)F [NCGC00244531-01] | -33%
CN(C)CC1CCCN(C2CCN(C(=O)c3cccc(-c4cc(O)c5ncccc5c4)c3)CC2)C1.O=C(O)C(F)(F)F (centres unmarked) [NCGC00247737-01] | -41%

Same assay, conditions: confirmatory screen

Efficacy (%) (confirmatory screen) | Compound | CONFIRMATORY SCREEN Efficacy (%)
 | CCOc1ccc(CCNC(C)=O)cc1OCC.O=C(O)C(F)(F)F [NCGC00241413-01] | -11%
 | CCN1C(=O)c2ccccc2[S+]([O-])c2ccc(C(=O)Nc3ncc(C)s3)cc21 (centres unmarked) [NCGC00241655-01] | -10%
-68% | CCN1C(=O)c2ccccc2[S+]([O-])c2ccc(C(=O)NCc3cccc(F)c3)cc21 (centres unmarked) [NCGC00241657-01] | 

Same assay, conditions: confirmatory screen, YES/NO

Confirm? (confirmatory screen) | Compound
YES | CCN1C(=O)c2ccccc2[S+]([O-])c2ccc(C(=O)NCc3cccc(F)c3)cc21 (centres unmarked) [NCGC00241657-01]

Same assay, conditions: confirmatory screen, qHTS curve class

Compound | CONFIRMATORY SCREEN Curve Class
CCOc1ccc(CCNC(C)=O)cc1OCC.O=C(O)C(F)(F)F [NCGC00241413-01] | 4
CCN1C(=O)c2ccccc2[S+]([O-])c2ccc(C(=O)Nc3ncc(C)s3)cc21 (centres unmarked) [NCGC00241655-01] | 4

Same assay, conditions: confirmatory screen, qHTS curve class; negative sign = inhibitory curve

Curve Class (confirmatory screen) | Compound
-2.2 | CCN1C(=O)c2ccccc2[S+]([O-])c2ccc(C(=O)NCc3cccc(F)c3)cc21 (centres unmarked) [NCGC00241657-01]

Same assay, conditions: confirmatory screen; read-out: IC50 [μM] (confirmatory screen)

IC50 | Compound
50.1 µM | CCN1C(=O)c2ccccc2[S+]([O-])c2ccc(C(=O)NCc3cccc(F)c3)cc21 (centres unmarked) [NCGC00241657-01]

Same assay, conditions: qHTS FP screen hits, Table S2; negative = inhibition

Compound | Efficacy (%)
CCOc1ccc(CCNC(C)=O)cc1OCC.O=C(O)C(F)(F)F [NCGC00241413-01] | -45%
O=C(NCCCN1CCNCC1)c1cccc(-c2cc(O)c3ncccc3c2)c1.O=C(O)C(F)(F)F [NCGC00244531-01] | -46%
CN(C)CC1CCCN(C2CCN(C(=O)c3cccc(-c4cc(O)c5ncccc5c4)c3)CC2)C1.O=C(O)C(F)(F)F (centres unmarked) [NCGC00247737-01] | -45%

Same assay, conditions: qHTS FP screen hits, Table S2; one class per curve where COUNT > 1; negative sign = inhibitory curve

Compound | Curve Class
CCOc1ccc(CCNC(C)=O)cc1OCC.O=C(O)C(F)(F)F [NCGC00241413-01] | -2.2
O=C(NCCCN1CCNCC1)c1cccc(-c2cc(O)c3ncccc3c2)c1.O=C(O)C(F)(F)F [NCGC00244531-01] | -2.2
CN(C)CC1CCCN(C2CCN(C(=O)c3cccc(-c4cc(O)c5ncccc5c4)c3)CC2)C1.O=C(O)C(F)(F)F (centres unmarked) [NCGC00247737-01] | -1.2

Same assay, conditions: qHTS FP screen hits, Table S2; read-out: IC50

Compound | IC50
CCOc1ccc(CCNC(C)=O)cc1OCC.O=C(O)C(F)(F)F [NCGC00241413-01] | 39.8 µM
O=C(NCCCN1CCNCC1)c1cccc(-c2cc(O)c3ncccc3c2)c1.O=C(O)C(F)(F)F [NCGC00244531-01] | 39.8 µM
CN(C)CC1CCCN(C2CCN(C(=O)c3cccc(-c4cc(O)c5ncccc5c4)c3)CC2)C1.O=C(O)C(F)(F)F (centres unmarked) [NCGC00247737-01] | 22.4 µM

Same assay, conditions: qHTS primary screen hits, Table S2; negative = inhibition

Efficacy (%) | Compound
-23% | CCN1C(=O)c2ccccc2[S+]([O-])c2ccc(C(=O)Nc3ncc(C)s3)cc21 (centres unmarked) [NCGC00241655-01]
-70% | CCN1C(=O)c2ccccc2[S+]([O-])c2ccc(C(=O)NCc3cccc(F)c3)cc21 (centres unmarked) [NCGC00241657-01]

Compound | Efficacy (%)
CCc1ccc(NC(=O)C(=O)NNC(=O)c2cccs2)cc1.O=C(O)C(F)(F)F [NCGC00244112-01] | -22%

Same assay, conditions: qHTS primary screen hits, Table S2; negative sign = inhibitory curve

Compound | Curve Class
CCN1C(=O)c2ccccc2[S+]([O-])c2ccc(C(=O)NCc3cccc(F)c3)cc21 (centres unmarked) [NCGC00241657-01] | -2.2
CCc1ccc(NC(=O)C(=O)NNC(=O)c2cccs2)cc1.O=C(O)C(F)(F)F [NCGC00244112-01] | -1.4

Same assay, conditions: qHTS primary screen hits, Table S2; negative sign = inhibitory curve; several classes where COUNT > 1

Curve Class | Compound
-2.4 | CCN1C(=O)c2ccccc2[S+]([O-])c2ccc(C(=O)Nc3ncc(C)s3)cc21 (centres unmarked) [NCGC00241655-01]

Same assay, conditions: qHTS primary screen hits, Table S2; read-out: IC50

IC50 | Compound
39.8 µM | CCN1C(=O)c2ccccc2[S+]([O-])c2ccc(C(=O)Nc3ncc(C)s3)cc21 (centres unmarked) [NCGC00241655-01]
39.8 µM | CCN1C(=O)c2ccccc2[S+]([O-])c2ccc(C(=O)NCc3cccc(F)c3)cc21 (centres unmarked) [NCGC00241657-01]

Compound | IC50
CCc1ccc(NC(=O)C(=O)NNC(=O)c2cccs2)cc1.O=C(O)C(F)(F)F [NCGC00244112-01] | 3.2 µM

The molecules below were run against T2, GST-CIB1 : F-scrambled peptide (Homo sapiens, UniProt Q99828) (assay: FP scrambled-peptide counter screen, 1536-well format). Settings: Table S3, counterscreen, YES/NO call.
T2 construct: made in house; host or cells: BL-21 plus RIL cells (E. coli)
T2 sequence (Q99828 1-191): T1 sequence (Q99828 1-191)
Format: binding

Compound | Confirm? (counterscreen)
O=C(NCCCN1CCNCC1)c1cccc(-c2cc(O)c3ncccc3c2)c1.O=C(O)C(F)(F)F [NCGC00244531-01] | YES
CN(C)CC1CCCN(C2CCN(C(=O)c3cccc(-c4cc(O)c5ncccc5c4)c3)CC2)C1.O=C(O)C(F)(F)F (centres unmarked) [NCGC00247737-01] | YES

Same assay, conditions: Table S3, counterscreen, qHTS curve class; a negative sign marks inhibitory curves

Compound | Curve Class (counterscreen)
O=C(NCCCN1CCNCC1)c1cccc(-c2cc(O)c3ncccc3c2)c1.O=C(O)C(F)(F)F [NCGC00244531-01] | -1.2
CN(C)CC1CCCN(C2CCN(C(=O)c3cccc(-c4cc(O)c5ncccc5c4)c3)CC2)C1.O=C(O)C(F)(F)F (centres unmarked) [NCGC00247737-01] | -2.2

Same assay, conditions: Table S3, counterscreen; negative = inhibition

Compound | Efficacy (%) (counterscreen)
CCc1ccc(NC(=O)C(=O)NNC(=O)c2cccs2)cc1.O=C(O)C(F)(F)F [NCGC00244112-01] | 71%
O=C(NCCCN1CCNCC1)c1cccc(-c2cc(O)c3ncccc3c2)c1.O=C(O)C(F)(F)F [NCGC00244531-01] | -52%
CN(C)CC1CCCN(C2CCN(C(=O)c3cccc(-c4cc(O)c5ncccc5c4)c3)CC2)C1.O=C(O)C(F)(F)F (centres unmarked) [NCGC00247737-01] | -46%

Same assay, conditions: Table S3, counterscreen; read-out: IC50 [μM] (counterscreen)

Compound | IC50
CCc1ccc(NC(=O)C(=O)NNC(=O)c2cccs2)cc1.O=C(O)C(F)(F)F [NCGC00244112-01] | 89.1 µM
O=C(NCCCN1CCNCC1)c1cccc(-c2cc(O)c3ncccc3c2)c1.O=C(O)C(F)(F)F [NCGC00244531-01] | 35.5 µM
CN(C)CC1CCCN(C2CCN(C(=O)c3cccc(-c4cc(O)c5ncccc5c4)c3)CC2)C1.O=C(O)C(F)(F)F (centres unmarked) [NCGC00247737-01] | 39.8 µM

Same assay, conditions: counterscreen

Efficacy (%) (counterscreen) | Compound | COUNTERSCREEN Efficacy (%)
 | CCOc1ccc(CCNC(C)=O)cc1OCC.O=C(O)C(F)(F)F [NCGC00241413-01] | 0%
 | CCN1C(=O)c2ccccc2[S+]([O-])c2ccc(C(=O)Nc3ncc(C)s3)cc21 (centres unmarked) [NCGC00241655-01] | -33%
-26% | CCN1C(=O)c2ccccc2[S+]([O-])c2ccc(C(=O)NCc3cccc(F)c3)cc21 (centres unmarked) [NCGC00241657-01] | 

Same assay, conditions: counterscreen, YES/NO

Confirm? (counterscreen) | Compound
YES | CCN1C(=O)c2ccccc2[S+]([O-])c2ccc(C(=O)NCc3cccc(F)c3)cc21 (centres unmarked) [NCGC00241657-01]

Same assay, conditions: counterscreen, qHTS curve class

Compound | COUNTERSCREEN Curve Class
CCOc1ccc(CCNC(C)=O)cc1OCC.O=C(O)C(F)(F)F [NCGC00241413-01] | 4
CCN1C(=O)c2ccccc2[S+]([O-])c2ccc(C(=O)Nc3ncc(C)s3)cc21 (centres unmarked) [NCGC00241655-01] | 4

Same assay, conditions: counterscreen, qHTS curve class; negative sign = inhibitory curve

Curve Class (counterscreen) | Compound
-1.4 | CCN1C(=O)c2ccccc2[S+]([O-])c2ccc(C(=O)NCc3cccc(F)c3)cc21 (centres unmarked) [NCGC00241657-01]

Same assay, conditions: counterscreen; read-out: IC50 [μM] (counterscreen)

IC50 | Compound
35.5 µM | CCN1C(=O)c2ccccc2[S+]([O-])c2ccc(C(=O)NCc3cccc(F)c3)cc21 (centres unmarked) [NCGC00241657-01]

— publication PMC11249646, “Small-Molecule Disruptors of the Interaction between Calcium- and Integrin-Binding Protein 1 and Integrin αIIbβ3 as Novel Antiplatelet Agents” (ACS Pharmacology & Translational Science, 2024)
